The source of these data is patent US8067447B2, “Modulators of glucocorticoid receptor, AP-1, and/or NF-κB activity and use thereof” (Bristol-Myers Squibb Company, priority 2006, dated 2011).

One may read the Ki as a dissociation constant, usually derived from enzyme kinetics or from competition with a known ligand. Broadly, the EC50 is the concentration needed to bring the measured effect to its halfway point.

Test [1] addresses T1, human glucocorticoid receptor (Homo sapiens, UniProt P04150).
T1 construct: purified human recombinant full-length glucocorticoid receptor (2 nM); purchased Invitrogen Part #2893
T1 sequence (P04150 1-777): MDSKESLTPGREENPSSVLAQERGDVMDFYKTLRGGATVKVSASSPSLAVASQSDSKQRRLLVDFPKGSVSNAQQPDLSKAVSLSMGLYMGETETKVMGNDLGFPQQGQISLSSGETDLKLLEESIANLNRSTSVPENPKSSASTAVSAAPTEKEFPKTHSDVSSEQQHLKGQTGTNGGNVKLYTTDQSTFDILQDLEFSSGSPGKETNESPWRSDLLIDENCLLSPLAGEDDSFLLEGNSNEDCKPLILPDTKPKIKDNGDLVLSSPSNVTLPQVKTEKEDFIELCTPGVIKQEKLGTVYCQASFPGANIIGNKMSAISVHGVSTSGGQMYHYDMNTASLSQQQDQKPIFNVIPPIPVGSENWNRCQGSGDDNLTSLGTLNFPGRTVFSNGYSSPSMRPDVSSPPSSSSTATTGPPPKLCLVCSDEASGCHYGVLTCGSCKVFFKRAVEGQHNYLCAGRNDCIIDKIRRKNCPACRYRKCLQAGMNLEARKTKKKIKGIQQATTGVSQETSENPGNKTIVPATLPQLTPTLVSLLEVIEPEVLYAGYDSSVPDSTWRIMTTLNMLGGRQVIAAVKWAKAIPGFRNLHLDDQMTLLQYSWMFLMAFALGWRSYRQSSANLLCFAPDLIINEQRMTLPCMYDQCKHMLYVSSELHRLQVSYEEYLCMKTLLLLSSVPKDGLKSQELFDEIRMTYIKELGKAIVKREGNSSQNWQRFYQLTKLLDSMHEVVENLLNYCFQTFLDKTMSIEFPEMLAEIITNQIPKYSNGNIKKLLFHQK
Nature of the test: Glucocorticoid Receptor Binding Assay (I), fluorescence polarization competitor kit (Fluormone GS Red). To be noted: purified human recombinant full-length GR 2 nM, 1 nM Fluormone GS Red, FP; read-out: GR (Ki, nM) (GR Binding Assay (I)). On the procedure:
Briefly, purified human recombinant full-length glucocorticoid receptor (2 nM) was mixed with fluorescently labeled glucocorticoid (1 nM Fluormone GS Red) in the presence or absence of test compound. After two hour incubation at room temperature in the dark, the fluorescence polarization (FP) of the samples was measured. […] Test compounds were analyzed in the concentration range from 8.5E-05 μM to 5 μM.
In general terms: Fluorescence polarisation rises when a labelled molecule tumbles more slowly, as on binding a larger partner.

The subject of test [2] is AP-1 induced transcriptional activity. As to the kind of experiment: Cellular Transrepressional Assay (AP-1 luciferase reporter in A549 cells, PMA-activated). The format is cell-based. To be noted: Homo sapiens, A549, 7 h, A549 cells with 7x AP-1 luciferase reporter, 10 ng/ml PMA, read-out: AP-1 (EC50, nM) (Cellular Transrepression Assay). On the procedure:
To measure the ability of test molecules to inhibit AP-1 induced transcriptional activity an A549 cell was utilized which was stably transfected with a plasmid containing 7× AP-1 DNA binding sites (pAP-1-Luc plasmid, Stratagene Co. La Jolla, Calif.) followed by the gene for luciferase. Cells were activated with 10 ng/ml of […] (PMA) plus or minus test molecules for 7 hours. After 7 hours a luciferase reagent was added to measure luciferase enzymatic activity in the cell. After a 10 minute incubation of luciferase reagent with cells, luminescence was measured in a TopCount luminescence counter. Repression of AP-1 activity was calculated as the percentage decrease in the signal induced by PMA alone. Test molecules were analyzed in the concentration range from 0.1 nM to 40 μM. EC50s were determined by using standard curve fitting methods such as Excel fit (Microsoft Co.).
Background: Reporter assays use an easily measured gene product as a stand-in for the process of interest.

Some results are limits rather than exact numbers.

Regarding `CC(C)(C(=O)Nc1nnc(C2CC2)s1)C(c1ccccc1)c1ccc2c(cnn2-c2ccc(F)cc2)c1` (centres unmarked) [Example 21, N-(5-cyclopropyl-1,3,4-thiadiazol-2-yl)-3-(1-(4-fluorophenyl)-1H-indazole-5-yl)-2,2-dimethyl-3-phenylpropanamide], in test [1], the inhibition constant (Ki) is 12 nM. Further, the concentration giving a half-maximal response (EC50) in test [2] was 155 nM.
As for `CSc1nnc(NC(=O)C(C)(C)C(c2ccccc2)c2ccc3c(cnn3-c3ccc(F)cc3)c2)s1` (centres unmarked) [Example 22, 3-(1-(4-fluorophenyl)-1H-indazol-5-yl)-2,2-dimethyl-N-(5-(methylthio)-1,3,4-thiadiazol-2-yl)-3-phenylpropanamide], the Ki in test [1] stood at 29 nM. Also, in test [2], the EC50 is 840 nM.
As to `CC(C)(C(=O)Nc1nc2ccccc2s1)C(c1ccccc1)c1ccc2c(cnn2-c2ccc(F)cc2)c1` (centres unmarked) [Example 23, N-(benzyl[d]thiazol-2-yl)-3-(1-(4-fluorophenyl)-1H-indazol-5-yl)-2,2-dimethyl-3-phenylpropanamide], the Ki in test [1] is 60 nM. In addition, in test [2], the EC50 is greater than 10000 nM.
For `Cc1nc(NC(=O)C(C)(C)C(c2ccccc2)c2ccc3c(cnn3-c3ccc(F)cc3)c2)sc1C` (centres unmarked) [Example 24, N-(4,5-dimethylthiazol-2-yl)-3-(1-(4-fluorophenyl)-1H-indazol-5-yl)-2,2-dimethyl-3-phenylpropanamide], in that order: 28 nM and greater than 10000 nM.
As for `CC(C)(C(=O)Nc1nnc(C(F)(F)F)s1)C(c1ccccc1)c1ccc2c(cnn2-c2ccc(F)cc2)c1` (centres unmarked) [Example 25, 3-(1-(4-fluorophenyl)-1H-indazol-5-yl)-2,2-dimethyl-3-phenyl-N-(5-(trifluoromethyl)-1,3,4-thiadiazol-2-yl)propanamide], the inhibitory constant (Ki) in test [1] was found to be 19 nM. The EC50 in test [2] was greater than 10000 nM.
With `CC(C)(C(=O)Nc1ncc(Cl)s1)C(c1ccccc1)c1ccc2c(cnn2-c2ccc(F)cc2)c1` (centres unmarked) [Example 26, N-(5-chlorothiazol-2-yl)-3-(1-(4-fluorophenyl)-1H-indazol-5-yl)-2,2-dimethyl-3-phenylpropanamide], the Ki in test [1] was 16 nM. Further, the EC50 in test [2] is 404 nM.
Turning to `CCOC(=O)c1csc(NC(=O)C(C)(C)C(c2ccccc2)c2ccc3c(cnn3-c3ccc(F)cc3)c2)n1` (centres unmarked) [Example 27, ethyl 2-(3-(1-(4-fluorophenyl)-1H-indazol-5-yl)-2,2-dimethyl-3-phenylpropanamido)thiazol-4-carboxylate], the inhibition constant Ki in test [1] stood at 23 nM. Besides, the half-maximal effective concentration (EC50) in test [2] came out at 1310 nM.
For the compound `CCOC(=O)Cc1csc(NC(=O)C(C)(C)C(c2ccccc2)c2ccc3c(cnn3-c3ccc(F)cc3)c2)n1` (centres unmarked) [Example 28, ethyl 2-(2-(3-(1-(4-fluorophenyl)-1H-indazol-5-yl)-2,2-dimethyl-3-phenylpropanamido)thiazol-4-yl)acetate], the Ki in test [1] stood at 20 nM. Besides, the concentration for a half-maximal effect (EC50) in test [2] worked out at 647 nM.
As for `CC(C)(C(=O)Nc1nccs1)C(c1ccccc1)c1ccc2[nH]ncc2c1` (centres unmarked) [Example 29, 3-(1H-Indazol-5-yl)-2,2-dimethyl-3-phenyl-N-(thiazol-2-yl)propanamide], in test [1], the Ki came to 7.8 nM. Further, the concentration giving a half-maximal response (EC50) in test [2] worked out at 126 nM.
As to `CC(C)(Cc1ccc2c(cnn2-c2ccc(F)cc2)c1)C(=O)Nc1nccs1` [Example 31, 3-(1-(4-Fluorophenyl)-1H-indazol-5-yl)-2,2-dimethyl-N-(thiazol-2-yl)propanamide], the inhibition constant (Ki) in test [1] is 98 nM. The concentration for a half-maximal effect (EC50) in test [2] is greater than 10000 nM.
On the same counts, the results for `CC(C)(Cc1ccc2c(cnn2-c2ccc(F)cc2)c1)C(=O)Nc1nncs1` [Example 32, 3-(1-(4-Fluorophenyl)-1H-indazol-5-yl)-2,2-dimethyl-N-(1,3,4-thiadiazol-2-yl)propanamide] are 84 nM and 4320 nM.
Consider `CC(C)(C(=O)Nc1nccs1)C(c1ccc2c(cnn2-c2ccc(F)cc2)c1)C1CCCC1` (centres unmarked) [Example 35, 3-Cyclopentyl-3-(1-(4-fluorophenyl)-1H-indazol-5-yl)-2,2-dimethyl-N-(thiazol-2-yl)propanamide], for which the inhibitory constant (Ki) in test [1] stood at 21 nM. Moreover, the half-maximal effective concentration (EC50) in test [2] was found to be 82 nM.
Turning to `CC(C)(C(=O)Nc1nccs1)C(c1cc[n+]([O-])cc1)c1ccc2c(cnn2-c2ccc(F)cc2)c1` (centres unmarked) [Example 37, 3-(1-(4-Fluorophenyl)-1H-indazol-5-yl)-2,2-dimethyl-3-(pyridin-4-N-oxide-yl)-N-(thiazol-2-yl)propanamide], in test [1], the Ki came to 301 nM. The half-maximal effective concentration (EC50) in test [2] is 3350 nM.
Consider `CCC(c1ccc2c(cnn2-c2ccc(F)cc2)c1)C(C)(C)C(=O)Nc1nccs1` (centres unmarked) [Example 39, 3-(1-(4-Fluorophenyl)-1H-indazol-5-yl)-2,2-dimethyl-N-(thiazol-2-yl)pentanamide], for which, in test [1], the Ki is 9.8 nM. In addition, the EC50 in test [2] turned out to be 87 nM.
On to `CC(C)(C(=O)Nc1nccs1)C(c1ccccc1)c1ccc2c(cnn2CCO)c1` (centres unmarked) [Example 57, 3-(1-(2-hydrox-ethyl)-1H-indazol-5-yl)-2,2-dimethyl-3-phenyl-N-(thiazol-2-yl)propanamide], for which the Ki in test [1] is 20 nM. Also, in test [2], the concentration for a half-maximal effect (EC50) is 205 nM.
On the same counts, the results for `CC(C)(C(=O)Nc1nccs1)C(c1ccccc1)c1ccc2c(cnn2C2CCOCC2)c1` (centres unmarked) [Example 58, 2,2-dimethyl-3-phenyl-3-(1-(tetrahydro-2H-pyran-4-yl)-1H-indazol-5-yl)-N-(thiazol-2-yl)propanamide] are 10 nM and 177 nM.
Turning to `CN1CCC(n2ncc3cc(C(c4ccccc4)C(C)(C)C(=O)Nc4nccs4)ccc32)CC1` (centres unmarked) [Example 59, 2,2-dimethyl-3-(1-(1-methylpiper-idin-4-yl)-1H-indazol-5-yl)-3-phenyl-N-(thiazol-2-yl)propanamide], in test [1], the Ki came out at 543 nM. In addition, in test [2], the concentration for a half-maximal effect (EC50) is greater than 10000 nM.
For the compound `CC(C)(C(=O)Nc1nccs1)C(c1ccccc1)c1ccc2c(cnn2CS(C)(=O)=O)c1` (centres unmarked) [Example 60, 2,2-dimethyl-3-(1-(methylsulfonylmethyl)-1H-indazol-5-yl)-3-phenyl-N-(thiazol-2-yl)propanamide], in test [1], the inhibition constant (Ki) was found to be 29 nM. Also, the EC50 in test [2] was greater than 10000 nM.
For `CC(C)n1ncc2cc(C(c3ccccc3)C(C)(C)C(=O)Nc3nccs3)ccc21` (centres unmarked) [Example 61, 3-(1-isopropyl-1H-indazol-5-yl)-2,2-dimethyl-3-phenyl-N-(thiazol-2-yl)propanamide], in that order: 14 nM and 158 nM.
As to `CC(C)n1cc2cc(C(c3ccccc3)C(C)(C)C(=O)Nc3nccs3)ccc2n1` (centres unmarked) [Example 62], the inhibition constant Ki in test [1] amounted to 9 nM. In addition, the EC50 in test [2] was determined as 6150 nM.
On the same counts, the results for `CC(C)(C(=O)Nc1nncs1)C(c1ccccc1)c1ccc2c(cnn2CS(C)(=O)=O)c1` (centres unmarked) [Example 64, 2,2-dimethyl-3-(1-(methylsulfonylmethyl)-1H-indazol-5-yl)-3-phenyl-N-(1,3,4-thiadiazol-2-yl)propanamide] are 65 nM and greater than 10000 nM.
As to `CC(C)(C(=O)Nc1nncs1)C(c1ccccc1)c1ccc2c(cnn2CCO)c1` (centres unmarked) [Example 65, 3-(1-(2-hydroxyethyl)-1H-indazol-5-yl)-2,2-dimethyl-3-phenyl-N-(1,3,4-thiadiazol-2-yl)propanamide], the inhibition constant (Ki) in test [1] amounted to 47 nM. For the same compound, the 50% effective concentration (EC50) in test [2] was 550 nM.
Regarding `CC(C)CCn1cc2cc(C(c3ccccc3)C(C)(C)C(=O)Nc3nncs3)ccc2n1` (centres unmarked) [Example 67, 3-(2-isopentyl-2H-indazol-5-yl)-2,2-dimethyl-3-phenyl-N-(1,3,4-thiadiazol-2-yl)propanamide], the inhibition constant Ki in test [1] worked out at 25 nM. Further, the concentration for a half-maximal effect (EC50) in test [2] worked out at 532 nM.
As for `COCCCn1cc2cc(C(c3ccccc3)C(C)(C)C(=O)Nc3nncs3)ccc2n1` (centres unmarked) [Example 69, 3-(2-(3-methoxy-propyl)-2H-indazol-5-yl)-2,2-dimethyl-3-phenyl-N-(1,3,4-thiadiazol-2-yl)propanamide], the inhibition constant Ki in test [1] turned out to be 84 nM. The concentration for a half-maximal effect (EC50) in test [2] is greater than 10000 nM.
Take `CC(C)Cn1ncc2cc(C(c3ccccc3)C(C)(C)C(=O)Nc3nncs3)ccc21` (centres unmarked) [Example 70, 3-(1-isobutyl-1H-indazol-5-yl)-2,2-dimethyl-3-phenyl-N-(1,3,4-thiadiazol-2-yl)propanamide]: the Ki in test [1] was 19 nM. The EC50 in test [2] came out at 1020 nM.
